Data from patent US6873914B2, “Methods and systems for analyzing complex biological systems” (Icoria, Inc., priority 2001, dated 2005).

Legend:
[1] = test system: Saccharomyces cerevisiae wild type strain BY4743; assay: AF1 metabolite analysis (GC-MS, LC-MS) of yeast cells treated with antifungal drugs; format: cell-based
[2] = test system: Saccharomyces cerevisiae wild type strain BY4743; assay: AF1 combined gene expression and metabolite data mapped to KEGG reactions and pathways, cluster analysis; format: cell-based
Excerpt: In AF1, two different technologies were utilized: gene expression analysis (for examination of mRNA expression) and metabolite analysis. […] As noted previously, existing metabolic databases may be helpful in practicing the methods and systems of the present invention, but many databases include limitations that make their use in data analysis and pathway mapping less than straightforward. […] This caveat to KEGG makes it difficult to pinpoint the correct pathway when attempting to link a gene to a specific pathway. […] The pathway score indicates how meaningful the mapping is, or how likely it is to be correctly indicative of the pathway involved in the perturbation under examination. […] Degree of perturbation can be calculated, for example, based on a number of standard deviations from a norm, and included in an equation such as the one shown above, so that not only the number of pathways is taken into account, but also accounts for the amount of gene transcript or compound present as compared to a control. […] KEGG links 676 compounds measured in AF1 to a total of 92 pathways. Of the 676 compounds under consideration, 77 were detected in the AF1 samples. […]

Compound: C[C@@H]1[C@H](O)[C@@H](C)/C=C/C=C/C=C/C=C/C=C/C=C/C=C/[C@H](O[C@@H]2O[C@H](C)[C@@H](O)[C@H](N)[C@@H]2O)C[C@@H]2O[C@](O)(C[C@@H](O)C[C@@H](O)[C@H](O)CC[C@@H](O)C[C@@H](O)CC(=O)O[C@H]1C)C[C@H](O)[C@H]2C(=O)O [Amphoteracin B]
- squalene and lanosterol in treated yeast cells ([1]; AF1, 2×MIC, two hours): not
- Fold Change: campesterol ([1]; GC): 0
- Fold Change: desmosterol ([1]; GC): 0
- Fold Change: octadecanoic acid ([1]; GC): 0.21
- Fold Change: abscisic acid ([1]; LC): 0
- Fold Change: adenosine ([1]; LC): 0
- Fold Change: riboflavin ([1]; LC): 0
- Fold Change: 4-methylcatechol ([1]; nLC): 0
- Fold Change: 5hydroxyLtryptophan ([1]; nLC): 0
- Fold Change: 6-benzylaminopurine ([1]; nLC): 0
- Fold Change: NacetylDglucosamine ([1]; nLC): 0
- Fold Change: NacetylLornithine ([1]; nLC): 0
- Fold Change: abscisic acid ([1]; nLC): 0
- Fold Change: adenine ([1]; nLC): 0
- Fold Change: adenosine ([1]; nLC): 0
- Fold Change: anthranilic acid ([1]; nLC): 0
- Fold Change: argininosuccinate ([1]; nLC): 0
- Fold Change: benzoic acid ([1]; nLC): 0
- Fold Change: catechol ([1]; nLC): 0
- Fold Change: cinnamic acid ([1]; nLC): 0
- Fold Change: citricanoic/itaconi ([1]; nLC): 0
- Fold Change: coumaric acid ([1]; nLC): 0
- Fold Change: cytosine ([1]; nLC): 0
- Fold Change: diaminopimelic acid ([1]; nLC): 0
- Fold Change: dihydrofolic acid ([1]; nLC): 0
- Fold Change: estrone ([1]; nLC): 0
- Fold Change: farnesol ([1]; nLC): 0
- Fold Change: folic acid ([1]; nLC): 0
- Fold Change: gibberellic ([1]; nLC): 0
- Fold Change: guanine ([1]; nLC): 0
- Fold Change: histidine ([1]; nLC): 0
- Fold Change: homogentisic/uric ([1]; nLC): 0
- Fold Change: hydrocortisone ([1]; nLC): 0
- Fold Change: indole3pyruvic acid ([1]; nLC): 0
- Fold Change: jasmonic acid ([1]; nLC): 0
- Fold Change: kinetin ([1]; nLC): 0
- Fold Change: luteolin ([1]; nLC): 0
- Fold Change: malonic acid ([1]; nLC): 0
- Fold Change: methionine ([1]; nLC): 0
- Fold Change: phenylpyruvic acid ([1]; nLC): 0
- Fold Change: phosphoenolpyruvate ([1]; nLC): 0
- Fold Change: pinitol ([1]; nLC): 0
- Fold Change: porphobilinogen ([1]; nLC): 0
- Fold Change: retinoic acid ([1]; nLC): 0
- Fold Change: salicylic/HObenzoic ([1]; nLC): 0
- Fold Change: shikimic acid ([1]; nLC): 0
- Fold Change: sinapinic acid ([1]; nLC): 0
- Fold Change: thymine ([1]; nLC): 0
- Fold Change: 4-aminobenzoic acid ([1]; pLC): 0
- Fold Change: 4-methylcatechol ([1]; pLC): 0
- Fold Change: 5hydroxyLtryptophan ([1]; pLC): 0
- Fold Change: 6benzylaminopurine ([1]; pLC): 0
- Fold Change: NacetylDglucosamine ([1]; pLC): 0
- Fold Change: NacetylLglutamate ([1]; pLC): 0
- Fold Change: allantoic acid ([1]; pLC): 0
- Fold Change: anthranilic acid ([1]; pLC): 0
- Fold Change: argininosuccinate ([1]; pLC): 0
- Fold Change: biotin ([1]; pLC): 0
- Fold Change: caffeine ([1]; pLC): 0
- Fold Change: citric acid TME ([1]; pLC): 0
- Fold Change: cytidine ([1]; pLC): 0
- Fold Change: cytosine ([1]; pLC): 0
- Fold Change: diaminopimelic acid ([1]; pLC): 0
- Fold Change: dihydrofolic acid ([1]; pLC): 0
- Fold Change: dipicolinic acid ([1]; pLC): 0
- Fold Change: folic acid ([1]; pLC): 0
- Fold Change: glucosamine ([1]; pLC): 0
- Fold Change: glucosamine6PO4 ([1]; pLC): 0
- Fold Change: histidine ([1]; pLC): 0
- Fold Change: hydrocortisone ([1]; pLC): 0
- Fold Change: itaconic acid dimes ([1]; pLC): 0
- Fold Change: kinetin ([1]; pLC): 0
- Fold Change: luteolin ([1]; pLC): 0
- Fold Change: niacinamide ([1]; pLC): 0
- Fold Change: nopaline ([1]; pLC): 0
- Fold Change: phosphoenolpyruvate ([1]; pLC): 0
- Fold Change: progesterone ([1]; pLC): 0
- Fold Change: sugar-phosphate ([1]; pLC): 0
- Fold Change: thiamine ([1]; pLC): 0
- Fold Change: thymine ([1]; pLC): 0
- Fold Change: tryptophan ([1]; pLC): 0
- # Reactions Having an Enzyme and at Least One Compound Perturbed [2]: 54
